Results on eight compounds are retold here after patent publication US8101408B2, “Insecticidal extract from legume plants and method of preparing the same” (Her Majesty the Queen in right of Canada, as represented by …, priority 2005, dated 2012).

Experiment [1] has as its target calcium-dependent potassium channels (Homo sapiens, UniProt Q12791). The note with it: mammalian in vitro experiments (McManus et al.); cited from earlier work.
The test system of experiment [2] is Sitophilus oryzae. Description: Flour disk antifeedant bioassay with rice weevils (food consumption as % of control; EC50/EC90 for feeding reduction). Particulars: for food consumption, peptide to saponin treatment ratio 9:1 (values in brackets) / food consumption, peptide to saponin treatment ratio 1:1 / food consumption, peptide to saponin treatment ratio 9:1: total dose 1.6 mg/200 mg of flour (D-I: 0.8 mg/100 mg); for food consumption, peptide to saponin treatment ratio 1:1 / food consumption, peptide to saponin treatment ratio 9:1 / food consumption, peptide to saponin treatment ratio 1:9: peptide source AIEX YM3; for synergy with pea peptides (in words): single dose tests, pea peptide to saponin treatment ratios of 9:1, 1:1 and 1:9; for food consumption, initial treatment: Table 20, saponin alone; for antifeedant activity (in words): rice weevil flour disk bioassay. The class given is in vivo. Here is the method:
The bioactivity of separated fractions was determined primarily by a flour disk antifeedant bioassay with the rice weevil (Sitophilus oryzae), an insect pest of stored products.
A glass column (1.2 cm internal diameter×20.5 cm length) equipped with a solvent reservoir and stopcock was filled with silica gel (Mallinckrodt SilicAR cc-7) using a slurry of the silica gel in chloroform (Merck OmniSolv containing 1% ethanol). The top of the bed was protected with sea sand. C8 powder (130 mg) was applied to the column, after mixing with silica gel, as a 1.25 cm band. Using a slight positive air pressure to maintain reasonable flow rates, the column was eluted with chloroform (75 ml) then with 75 ml volumes of various mixtures of chloroform and methanol followed by pure methanol (Table 1). The column was eluted with more methanol (75 ml) and finally with two additional volumes of methanol (250 ml each). […] A final evaporation was performed with a Savant apparatus (43° C.). The tubes were re-weighed, capped and transferred to the bioassay laboratory. Each sample was dissolved in 70% ethanol (0.5 ml) and 0.2 ml of that solution was added to the wheat flour (200 mg) for preparation of the disks. […] Control disks were prepared with 0.2 ml of 70% ethanol.
A test insecticidal compound is incorporated into flour disks. […] A typical dose in many of the above examples is 1.6 milligram/200 milligram flour. Wheat flour is typically used.
(§1) Reduction in feeding activity elicited by the experimental samples was compared to food consumption of untreated controls, obtained by weighing the disks before and after exposure to insects and expressed as percent feeding relative to the control. Bioassay can also include insecticidal measurements (lethality with rice weevil).
(§2) Flour disks (ca. 0.1 g/disk) were weighed before and after exposure to the insects. […] Antifeedant activity was determined by expressing consumption of treated disks as a percentage of control disks (70% ethanol). Positive controls using the same C8 extract were run with each bioassay.
The estimate and confidence limits are the values of X where the line Y=Yo crosses the regression line and its upper and lower confidence curves, respectively. The formulae can be expressed in terms of outputs from the regression analysis. Let a and b be the estimates of the intercept and slope, MSE the mean square error, n the number of observations, t the (2-sided) critical value of t with n−2 degrees of freedom, V(b) the variance (standard error squared) of b and D=b^2−t^2V(b)). Then the estimate of X is Xo=(Yo−a)/b and the confidence limits for X are X0+t^2V(b)(Y0− Y)/bD±H where H^2=t^2└D·MSE/n+V(b)(Y0− Y)^2┘/D^2. The interval is not symmetric about Xo. […]

Experiment [3] has as its system Sitophilus oryzae. The experiment is classed as in vivo. Here is the method: as §1, §2
Probit analysis (Polo-PC, LeOra Software, Berkeley, Calif., U.S.A.) was used to estimate the concentrations required to kill 50 and 90% of the population after seven days. For the experiments that used a single dose, the mean survival time was estimated using Kaplan-Meier survival analysis (SigmaStat 3.0, SPSS Inc, Chicago, Ill., U.S.A.).

The mark [4] stands for this setting: saponin:peptide ratio 1:0, 0.6% used in this test.
Setting [5] is: total dose 1.6 mg/200 mg of flour.
Where [6] appears, read: saponin:peptide ratio 1:0 (saponin or soap alone), concentration 0.8%.
Setting [7] is: saponin:peptide ratio 1:0, 0.8%, Kaplan-Meier.
Setting [8] is: C8 material as peptide source, total dose 1.6 mg/200 mg of flour.

Several values for one entry are separate records, joined by “and”; a condition that tells them apart may be missing. Equal values may be shown once. Entries after “also recorded” stand apart in the source; their conditions may differ. Read-outs that look alike come from different tables or passages of the source.

Chain of calcium-dependent potassium channels (Q12791 whole entry): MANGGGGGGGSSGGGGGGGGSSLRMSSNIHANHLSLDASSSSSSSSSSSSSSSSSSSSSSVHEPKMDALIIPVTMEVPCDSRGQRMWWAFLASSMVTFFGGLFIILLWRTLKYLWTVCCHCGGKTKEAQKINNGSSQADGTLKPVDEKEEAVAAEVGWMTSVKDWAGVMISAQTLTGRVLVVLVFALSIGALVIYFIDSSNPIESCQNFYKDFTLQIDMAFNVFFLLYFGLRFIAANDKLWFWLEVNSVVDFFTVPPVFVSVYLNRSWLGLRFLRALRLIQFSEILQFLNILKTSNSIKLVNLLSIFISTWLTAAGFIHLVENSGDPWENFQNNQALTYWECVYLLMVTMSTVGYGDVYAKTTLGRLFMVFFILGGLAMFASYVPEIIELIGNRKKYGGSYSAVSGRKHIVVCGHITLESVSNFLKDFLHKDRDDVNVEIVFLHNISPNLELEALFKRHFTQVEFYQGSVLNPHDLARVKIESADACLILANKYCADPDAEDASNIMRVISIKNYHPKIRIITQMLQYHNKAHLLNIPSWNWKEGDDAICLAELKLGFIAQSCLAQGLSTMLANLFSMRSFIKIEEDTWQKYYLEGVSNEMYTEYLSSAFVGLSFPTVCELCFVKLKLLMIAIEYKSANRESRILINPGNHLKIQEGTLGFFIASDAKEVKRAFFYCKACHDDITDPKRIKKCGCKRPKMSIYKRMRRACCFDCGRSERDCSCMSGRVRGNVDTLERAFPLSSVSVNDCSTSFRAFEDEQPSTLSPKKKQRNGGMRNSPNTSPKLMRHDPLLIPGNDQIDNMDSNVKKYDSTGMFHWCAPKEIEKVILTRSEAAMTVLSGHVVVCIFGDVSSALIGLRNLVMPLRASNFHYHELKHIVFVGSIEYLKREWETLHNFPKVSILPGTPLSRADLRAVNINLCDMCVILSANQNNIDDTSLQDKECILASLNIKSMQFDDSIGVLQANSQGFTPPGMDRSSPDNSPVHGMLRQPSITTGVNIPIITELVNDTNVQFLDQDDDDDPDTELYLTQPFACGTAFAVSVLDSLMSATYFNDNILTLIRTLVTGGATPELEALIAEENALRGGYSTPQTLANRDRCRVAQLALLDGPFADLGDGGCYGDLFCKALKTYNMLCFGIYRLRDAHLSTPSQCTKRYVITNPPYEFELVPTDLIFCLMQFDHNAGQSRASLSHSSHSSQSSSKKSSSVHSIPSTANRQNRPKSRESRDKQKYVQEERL
Chain of calcium-dependent potassium channels (Q16558 whole entry partner): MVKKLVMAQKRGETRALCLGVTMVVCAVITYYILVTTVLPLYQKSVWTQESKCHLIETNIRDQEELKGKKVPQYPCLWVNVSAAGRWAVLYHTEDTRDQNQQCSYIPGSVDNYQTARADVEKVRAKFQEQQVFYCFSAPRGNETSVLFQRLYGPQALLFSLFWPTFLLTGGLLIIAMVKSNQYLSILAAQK

`C[C@@H]1O[C@@H](O[C@H]2[C@H](O[C@H]3[C@H](O[C@H]4CC[C@@]5(C)[C@@H](CC[C@]6(C)[C@@H]5CC=C5[C@@H]7CC(C)(C)CC(=O)[C@]7(C)CC[C@]56C)[C@@]4(C)CO)O[C@H](C(=O)O)[C@@H](O)[C@@H]3O)O[C@H](CO)[C@H](O)[C@@H]2O)[C@H](O)[C@H](O)[C@H]1O` [Dehydrosoyasaponin I, dehydrosoyasaponin I]: in experiment [1], the “action on calcium-dependent potassium channels (in words)” value is “high-affinity activator” and the “potency as a potassium channel opener relative to S-I” value is 60 fold. Also, the “food consumption, peptide to saponin treatment ratio 9:1 (values in brackets)” value in experiment [2] (C8 material as peptide source) is listed as “(17) % of control”. Further, the “food consumption in the rice weevil bioassay” value in experiment [2] (RPC isolate, […]100 mg of flour (equivalent to 1.28 mg/200 mg)) is recorded as 65%. Moreover, in experiment [2], the “food consumption, peptide to saponin treatment ratio 1:1” value is 34 % of control; the “food consumption, peptide to saponin treatment ratio 9:1” value is reported as 32 % of control; the “synergy with pea peptides (in words)” value is “clearly synergistic”. Besides, the “Feeding as a percent of control (%)” value in experiment [2] (setting [4]) stood at 65%. In addition, the “Mean survival time (days ± SE)” value in experiment [3] (setting [4]) turned out to be 13.8 ± 0.2 a days.
For the compound `CC1(C)[C@@H](O[C@H]2O[C@H](C(=O)O)[C@@H](O)[C@H](O)[C@H]2O[C@@H]2O[C@H](C(=O)O)[C@@H](O)[C@H](O)[C@H]2O)CC[C@]2(C)[C@H]3C(=O)C=C4[C@@H]5C[C@@](C)(C(=O)O)CC[C@]5(C)CC[C@@]4(C)[C@]3(C)CC[C@@H]12` [Glycyrrhizic acid, glycyrrhizic acid], the “food consumption, initial treatment” value in experiment [2] (1.6 mg/200 mg of flour) is on record as 96 % of control. The “food consumption, peptide to saponin treatment ratio 1:9” value in experiment [2] (setting [5]) is recorded as 39 % of control. Also, in experiment [2], the “food consumption, peptide to saponin treatment ratio 1:1” value is given as 45 % of control; the “food consumption, peptide to saponin treatment ratio 9:1” value is on record as 33 % of control; the “antifeedant activity (in words)” value was “inactive; also recorded: no significant reduction in feeding”; the “synergy with pea peptides (in words)” value is on record as “clearly synergistic”. For the same compound, in experiment [2] (setting [6]), the “Feeding as a percent of control (%)” value amounted to 96%.
On to `C[C@@H]1O[C@@H](O[C@H]2[C@H](O[C@H]3CC[C@@]4(C)[C@@H](CC[C@]5(C)[C@@H]4CC=C4[C@@H]6CC(C)(C)CC[C@]6(C(=O)O[C@@H]6O[C@H](CO[C@@H]7O[C@H](CO)[C@@H](O[C@@H]8O[C@@H](C)[C@H](O)[C@@H](O)[C@H]8O)[C@H](O)[C@H]7O)[C@@H](O)[C@H](O)[C@H]6O)CC[C@]45C)[C@]3(C)CO)OC[C@H](O)[C@@H]2O)[C@H](O)[C@H](O)[C@H]1O` [Hederacoside C, hederacoside C], for which the “food consumption, initial treatment” value in experiment [2] (1.6 mg/200 mg of flour) was 117 % of control. In addition, the “food consumption, peptide to saponin treatment ratio 1:9” value in experiment [2] (setting [5]) is 58 % of control. In experiment [2], the “food consumption, peptide to saponin treatment ratio 1:1” value is 47 % of control; the “food consumption, peptide to saponin treatment ratio 9:1” value is 44 % of control; the “antifeedant activity (in words)” value is “inactive”; the “synergy with pea peptides (in words)” value is reported as “clearly synergistic”. Also, the “antifeedant activity (in words)” value in experiment [2] (listed as hederacoside C) is “no significant reduction in feeding”. Further, in experiment [2] (setting [6]), the “Feeding as a percent of control (%)” value was found to be 117%. The “Mean survival time (days ± SE)” value in experiment [3] (setting [7]) is listed as 13.9 a days.
As to `CCCCCCCCCCCCCCCC(=O)OC[C@@H](O)COP(=O)([O-])OCC[N+](C)(C)C` [L-16:0], the “food consumption in the rice weevil bioassay” value in experiment [2] (1.6 mg/200 mg flour, relative to control) amounted to 102%. Moreover, the food consumption in experiment [2] (lysolecithin-saponin (soyasaponin I) mixtures, similar experiments, total dose 0.016-1.6 mg/200 mg of flour) is listed as 84-102%. For the same compound, in experiment [2] (mixtures of 90% lysolecithin and 10% peptides (AIEX YM3), total dose 0.016-1.6 mg/200 mg of flour), the “food consumption, expressed as % of untreated control” value is listed as 71-115%.
Consider `CCCCCCCCCCCC(=O)OCCOCCOCCOCCOCCOCCOCCOCCOCCOCCOCCOCCOCCOCCOCCOCCOCCOCCOCCOCCOCC(OCCOCCOCCOCCOCCOCCOCCOCCOCCOCCOCCOCCOCCOCCOCCOCCOCCOCCOCCOCCO)C1OCC(OCCOCCOCCOCCOCCOCCOCCOCCOCCOCCOCCOCCOCCOCCOCCOCCOCCOCCOCCOCCO)C1OCCOCCOCCOCCOCCOCCOCCOCCOCCOCCOCCOCCOCCOCCOCCOCCOCCOCCOCCOCCO` (stereo not drawn) [Tween 20, polyoxyethylene(20)sorbitan monolaurate], for which the “Feeding as a percent of control (%)” value in experiment [2] (setting [6]) was 106%. For the same compound, the “Mean survival time (days ± SE)” value in experiment [3] (setting [7]) is reported as 13.7 a days. Further, the “mortality / toxicity to the rice weevil (in words)” value in experiment [3] (used alone) was “Neither Tween or dish soap were toxic”.
With `Cc1occc(=O)c1O` [maltol, 3-hydroxy-2-methyl-4-pyrone], the “f.c. (food consumption)” value in experiment [2] (Table 4, 1.6 mg/200 mg of flour) is reported as 110 % of control. Further, the “antifeedant activity (in words)” value in experiment [2] is “inactive”.
With `C[C@@H]1O[C@@H](O[C@H]2[C@H](O[C@H]3CC[C@@]4(C)[C@@H](CC[C@]5(C)[C@@H]4CC=C4[C@@H]6CC(C)(C)CC[C@]6(C(=O)O)CC[C@]45C)[C@]3(C)CO)OC[C@H](O)[C@@H]2O)[C@H](O)[C@H](O)[C@H]1O` [α-Hederin, α-hederin], the “food consumption, initial treatment” value in experiment [2] (1.6 mg/200 mg of flour) is 36 % of control. Besides, the “food consumption, peptide to saponin treatment ratio 1:9” value in experiment [2] (setting [5]) is on record as 26 % of control. In addition, in experiment [2], the “food consumption, peptide to saponin treatment ratio 1:1” value is reported as 26 % of control and the “food consumption, peptide to saponin treatment ratio 9:1” value is on record as 24 % of control. In experiment [2] (setting [6]), the “Feeding as a percent of control (%)” value is given as 36%.
As for β-escin, in experiment [2] (setting [8]), the “food consumption, peptide to saponin treatment ratio 1:1 (values in brackets)” value is on record as “(15) % of control” and the “food consumption, peptide to saponin treatment ratio 1:9 (values in brackets)” value was “(16) % of control”. Further, in experiment [2] (C8 material as peptide source), the “food consumption, peptide to saponin treatment ratio 9:1 (values in brackets)” value is given as “(14) % of control”. The “food consumption, peptide to saponin treatment ratio 1:9” value in experiment [2] (setting [5]) is 18 % of control. In experiment [2], the “food consumption, peptide to saponin treatment ratio 1:1” value is recorded as 17 % of control and the “food consumption, peptide to saponin treatment ratio 9:1” value was 17 % of control. Further, the “Feeding as a percent of control (%)” value in experiment [2] (setting [6]) is 18% and 30%. Moreover, in experiment [2] (saponin:peptide ratio 1:0, three days on treated wafers), the “EC90 (%) to reduce feeding by 90%” value came to 1.5%. The “Mean survival time (days ± SE)” value in experiment [3] (setting [7]) is on record as 6.3 ± 0.2 a days. Also, the “LD90 (%)” value in experiment [3] (saponin:peptide ratio 1:0, held three days on treated wafers, at 7 days) amounted to 1.74%.
